For data set [1] the following is noted: cited from earlier work.
The nature of data set [2]: Relaxation dynamics of hyperpolarized [1-13C]pyruvate (build-up time Tb and T1). The source says:
In addition, the relaxation dynamics of the [1-^13C]pyruvate were also studied.
In addition, relaxation dynamics at earth field and 1.8 T are about the same as a non-fluorinated SABRE catalyst T1=28.9±1.6 s and 66.5±7 s, respectively.

Test in data set [3]: as above
The source holds these as a separate data set.

The mark [4] stands for this setting: Example 7: Example 4 catalyst, DMSO, methanol.
The mark [5] stands for this setting: Example 25: Example 4 catalyst, DMSO, NFBME/MeOD fluorous mixture.
The mark [6] stands for this setting: Example 31: Example 4 catalyst, DMSO, CD3OD/Novec 7100.
[7] abbreviates: Example 32: Example 4 catalyst, PTMSO, CD3OD/Novec 7100.

As to `[HH]` [Example H2], the “H2 solubility in water” value in data set [1] is given as “about 1.6 mg/L”.
Consider `CC(=O)C(=O)O` [[1-^13C]pyruvate, sodium [1-^13C]pyruvate], for which the “T1 at 1.8T” value came to 66.5 ± 7 s in data set [2] (setting [4]), 16.0 ± 1.4 s in data set [2] (setting [5]), 66.5 ± 3.6 s in data set [2] (setting [6]) and 59.0 ± 8.1 s in data set [2] (setting [7]). Also, the “T1 at earth field” value amounted to 28.9 ± 1.6 s in data set [2] (setting [4]), 9.0 ± 1.9 s in data set [2] (setting [5]), 9.3 ± 0.8 s in data set [2] (setting [6]) and 14.9 ± 1.0 s in data set [2] (setting [7]). The “T1 (relaxation at 0.4 μT)” value was 16.1 ± 0.9 s in data set [3] (setting [4]), 11.3 ± 1.3 s in data set [3] (setting [5]), 12.6 ± 1.1 s in data set [3] (setting [6]) and 18.0 ± 0.8 s in data set [3] (setting [7]).

The values are drawn from patent publication US20240216900A1, “SABRE CATALYSTS CONTAINING FLUORINATED CARBON CHAINS FOR DELIVERY OF METAL-FREE MRI CONTRAST AGENTS” (The U.S.A., as represented by the Secretary, Department of …, priority 2022, published 2024).
